Patent publication US20130150340A1, “6-(4-Hydroxy-phenyl)-1H-pyrazolo[3,4-b]pyridine-4-carboxylic acid amide derivatives as kinase inhibitors” (SANOFI, priority 2011, published 2013)

Target: T1, human full-length recombinant PKC βII (Homo sapiens, UniProt P05771)
T1 construct: Active human full-length recombinant PKC βII; purchased Invitrogen GmbH, Darmstadt, Germany
Assay: Determination of PKC βII inhibition (Caliper mobility-shift kinase assay)
Assay type: biochemical
Details: example compounds at a final concentration of 1.14 μM (±0.15 μM); 60 min incubation at 32° C.
Experimental: Determination of PKC 3H Inhibition
PKC βII inhibition was determined according to the following protocol:
Active human full-length recombinant PKC βII and the peptide substrate, Fluorescein-RFARKGSLRQKNV, were purchased from Invitrogen GmbH, Darmstadt, Germany. Adenosine-5′-triphosphate (ATP), bovine serum albumine (BSA), dimethylsulphoxide (DMSO), 4-(2-hydroxyethyl)piperazine-1-ethanesulfonic acid (Hepes), Triton X-100, 1,2-Dioleoyl-sn-glycerol (DAG), L-α-Phosphatidyl-L-serine (PS), calcium chloride (CaCl2), and Pluronic F-68 were purchased from Sigma-Aldrich, Munich, Germany. Magnesium chloride, 1 M sodium hydroxide solution, 1M hydrochloric acid solution and EDTA were obtained from Merck Biosciences, Darmstadt, Germany.
Test compounds were diluted to three times the test concentration in buffer 1 (30 mM Hepes-NaOH, pH 7.4, 0.01% Pluronic F-68 and 3% (v/v) DMSO). The PKC βII enzyme was diluted to a concentration of 30 ng/ml in buffer 2 (30 mM Hepes-NaOH, pH 7.4, 15 mM MgCl2, 150 μM CaCl2, 150 μg/ml PS, 60 μg/ml DAG, and 0.045% (w/v) Triton X-100). The peptide substrate and ATP were diluted to concentrations of 3 μM and 120 μM, respectively, in buffer 2. Two μl of the compound solution were mixed with 2 μl of the diluted enzyme in a 384-well small volume microtiter plate (Greiner, Bio-One, Frickenhausen, Germany), and the kinase reaction was initiated by addition of 2 μl of the solution containing peptide substrate and ATP. After 60 min incubation at 32° C., the reaction was stopped by addition of 20 μl of a solution containing 130 mM Hepes-NaOH, pH 7.4, 0.0195% (v/v) Brij-35, 6.5 mM EDTA, 0.13% chip coating reagent 3 (Caliper Lifescience Inc, Hopkinton, Mass.) and 6.5% (v/v) DMSO. Phosphorylation of the substrate peptide was then detected on a Caliper 3000 instrument essentially as described by Pommereau et al (J. Biomol. Screening 2004, 9(5), […]), Separation conditions were as follows: Pressure −0.8 psi, upstream voltage −3000 V, downstream voltage −800 V. Positive controls (buffer 1 instead of compound) and negative controls (buffer 1 instead of compound and buffer 2 instead of kinase solution) were run in parallel on each plate. Fractional turnover (R) was determined as the height of the peak of the phosphorylated peptide product divided by the sum of the unphosphorylated substrate and phosphorylated product peak heights. Percent-inhibition values for the test compounds were determined using the formula
% Inhibition=100*(1−(Rcompound−Rnegative control)/(Rpositive control−Rnegative control).

T1 sequence (P05771 1-673 isoform P05771-2): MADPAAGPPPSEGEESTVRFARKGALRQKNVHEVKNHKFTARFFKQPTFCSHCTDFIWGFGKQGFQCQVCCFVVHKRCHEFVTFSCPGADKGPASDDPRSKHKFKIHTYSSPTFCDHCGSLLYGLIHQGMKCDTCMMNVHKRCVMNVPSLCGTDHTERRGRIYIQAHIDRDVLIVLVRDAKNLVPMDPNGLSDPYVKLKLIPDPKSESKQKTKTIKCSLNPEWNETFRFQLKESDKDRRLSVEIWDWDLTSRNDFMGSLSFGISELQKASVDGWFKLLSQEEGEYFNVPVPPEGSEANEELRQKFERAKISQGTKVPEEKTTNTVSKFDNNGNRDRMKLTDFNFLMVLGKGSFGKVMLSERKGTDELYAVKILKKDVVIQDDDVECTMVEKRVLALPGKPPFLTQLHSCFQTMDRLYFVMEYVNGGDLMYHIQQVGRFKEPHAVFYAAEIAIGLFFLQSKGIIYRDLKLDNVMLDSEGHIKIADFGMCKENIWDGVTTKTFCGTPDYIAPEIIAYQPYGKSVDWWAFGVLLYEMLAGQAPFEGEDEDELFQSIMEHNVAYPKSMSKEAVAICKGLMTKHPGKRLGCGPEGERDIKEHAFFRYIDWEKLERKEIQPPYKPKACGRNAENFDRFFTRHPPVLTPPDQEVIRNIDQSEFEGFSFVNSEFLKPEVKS

inhibition at 1.14 µM [%] | SMILES
91 | CC1CN(C(=O)c2cc(-c3ccc(O)cc3)nc3[nH]ncc23)CCN1 (centres unmarked) [Example 37, [6-(4-Hydroxy-phenyl)-1H-pyrazolo[3,4-b]pyridin-4-yl]-(3-methyl-piperazin-1-yl)-methanone]
66 | N[C@@H]1CCN(C(=O)c2cc(-c3ccc(O)cc3)nc3[nH]ncc23)C1 [Example 16, ((R)-3-Amino-pyrrolidin-1-yl)-[6-(4-hydroxy-phenyl)-1H-pyrazolo[3,4-b]-pyridin-4-yl]-methanone]
83 | O=C(N[C@@H]1CCCNC1)c1cc(-c2ccc(O)cc2)nc2[nH]ncc12 [Example 19, 6-(4-Hydroxy-phenyl)-1H-pyrazolo[3,4-b]pyridine-4-carboxylic acid (R)-piperidin-3-ylamide]
69 | O=C(NC1CCNC2(CCC2)C1)c1cc(-c2ccc(O)cc2)nc2[nH]ncc12 (centres unmarked) [Example 32, 6-(4-Hydroxy-phenyl)-1H-pyrazolo[3,4-b]pyridine-4-carboxylic acid (5-aza-spiro[3.5]non-8-yl)-amide]
95 | NC1CCCN(C(=O)c2cc(-c3ccc(O)cc3)nc3[nH]ncc23)C1 (centres unmarked) [Example 3, (3-Amino-piperidin-1-yl)-[6-(4-hydroxy-phenyl)-1H-pyrazolo[3,4-b]pyridin-4-yl]-methanone]
40 | O=C(c1cc(-c2ccc(O)cc2)nc2[nH]ncc12)N1CCN(C2CCCCCC2)CC1 [Example 58, (4-Cycloheptyl-piperazin-1-yl)-[6-(4-hydroxy-phenyl)-1H-pyrazolo[3,4-b]pyridin-4-yl]-methanone]
59 | O=C(c1cc(-c2ccc(O)cc2)nc2[nH]ncc12)N1CCC2(CC1)CNC2 [Example 21, (2,7-Diaza-spiro[3.5]non-7-yl)-[6-(4-hydroxy-phenyl)-1H-pyrazolo[3,4-b]pyridin-4-yl]-methanone]
54 | NC1CN(C(=O)c2cc(-c3ccc(O)cc3)nc3[nH]ncc23)C1 [Example 36, (3-Amino-azetidin-1-yl)-[6-(4-hydroxy-phenyl)-1H-pyrazolo[3,4-b]pyridin-4-yl]-methanone]
48 | O=C1CCC(CNC(=O)c2cc(-c3ccc(O)cc3)nc3[nH]ncc23)N1 (centres unmarked) [Example 63, 6-(4-Hydroxy-phenyl)-1H-pyrazolo[3,4-b]pyridine-4-carboxylic acid (5-oxo-pyrrolidin-2-ylmethyl)-amide]
40 | CC(=O)N1CCC(NC(=O)c2cc(-c3ccc(O)cc3)nc3[nH]ncc23)CC1 [Example 68, 6-(4-Hydroxy-phenyl)-1H-pyrazolo[3,4-b]pyridine-4-carboxylic acid (1-acetyl-piperidin-4-yl)-amide]
82 | N[C@H]1CC[C@H](NC(=O)c2cc(-c3ccc(O)cc3)nc3[nH]ncc23)CC1 [Example 9, 6-(4-Hydroxy-phenyl)-1H-pyrazolo[3,4-b]pyridine-4-carboxylic acid (trans-4-amino-cyclohexyl)-amide]
39 | O=C(NCC1CNC1)c1cc(-c2ccc(O)cc2)nc2[nH]ncc12 [Example 13, 6-(4-Hydroxy-phenyl)-1H-pyrazolo[3,4-b]pyridine-4-carboxylic acid (azetidin-3-ylmethyl)-amide]
27 | O=C(NC1CCNCC1)c1cc(-c2ccc(O)cc2)nc2[nH]ncc12 [Example 2, 6-(4-Hydroxy-phenyl)-1H-pyrazolo[3,4-b]pyridine-4-carboxylic acid piperidin-4-ylamide]
39 | O=C(c1cc(-c2ccc(O)cc2)nc2[nH]ncc12)N1CC2CNCC2C1 (centres unmarked) [Example 46, (Hexahydro-pyrrolo[3,4-c]pyrrol-2-yl)-[6-(4-hydroxy-phenyl)-1H-pyrazolo[3,4-b]pyridin-4-yl]-methanone]
47 | CN(C)[C@H]1CCN(C(=O)c2cc(-c3ccc(O)cc3)nc3[nH]ncc23)C1 [Example 55, ((S)-3-Dimethylamino-pyrrolidin-1-yl)-[6-(4-hydroxy-phenyl)-1H-pyrazolo[3,4-b]pyridin-4-yl]-methanone]
45 | O=C(NC1CCN(Cc2ccncc2)CC1)c1cc(-c2ccc(O)cc2)nc2[nH]ncc12 [Example 75, 6-(4-Hydroxy-phenyl)-1H-pyrazolo[3,4-b]pyridine-4-carboxylic acid (1-pyridin-4-ylmethyl-piperidin-4-yl)-amide]
45 | O=C(c1cc(-c2ccc(O)cc2)nc2[nH]ncc12)N1CCC2CNCC21 (centres unmarked) [Example 34, (Hexahydro-pyrrolo[3,4-b]pyrrol-1-yl)-[6-(4-hydroxy-phenyl)-1H-pyrazolo[3,4-b]pyridin-4-yl]-methanone]
52 | O=C(c1cc(-c2ccc(O)cc2)nc2[nH]ncc12)N1CCC2(CCNC2)CC1 [Example 43, (2,8-Diaza-spiro[4.5]dec-8-yl)-[6-(4-hydroxy-phenyl)-1H-pyrazolo[3,4-b]pyridin-4-yl]-methanone]
57 | O=C(N[C@@H]1CCCN(Cc2ccccc2)C1)c1cc(-c2ccc(O)cc2)nc2[nH]ncc12 [Example 77, 6-(4-Hydroxy-phenyl)-1H-pyrazolo[3,4-b]pyridine-4-carboxylic acid ((R)-1-benzyl-piperidin-3-yl)-amide]

SMILES | inhibition at 1.14 µM [%]
O=C(N[C@@H]1CN2CCC1CC2)c1cc(-c2ccc(O)cc2)nc2[nH]ncc12 [Example 40, 6-(4-Hydroxy-phenyl)-1H-pyrazolo[3,4-b]pyridine-4-carboxylic acid-(S)-(1-Aza-bicyclo[2.2.2]oct-3-yl)amide] | 71
